Experimental data: US20090142364A1, “Method for finding novel peptide immunostimulatory adjuvants, compositions and methods of use” (priority 2007, published 2009)
Where a SMILES comes first, the peptide text is derived from it. [ ]: non-standard residue; d: D form.

Columns and labels:
mAb E6/1.2 = conditions: cited from earlier work
[1] = system: Balb/c mice peritoneal mononuclear cells (PMC); experiment: Ia-antigen-inducing effect, flow cytometry, peritoneal mononuclear cells; format: cell-based, mouse
Method: (§1) We studied the Ia-antigen-inducing activity of RN-peptide by stimulation in vitro of murine peritoneal macrophages. Flow cytometry was used to assess Ia-antigen expression. […] The pyrogenicity of the peptide was studied in Wistar rats. […] The dynamics of alteration of rectal temperature were monitored during 2.5 h.
Balb/c mice peritoneal mononuclear cells (PMC) were isolated by Histopaque density gradient centrifugation. PMC or WEHI-3 cells were incubated with RN-peptide (0.1-10 μg/ml) or GMDP (positive control) or saline (negative control) in RPMI 1640 medium, supplemented with 5% fetal calf serum upon rotary mixing for 18 h at 37° C. Cells were stained on ice bath with MKD6 anti-Ia^d mAb (supernatant from the in vitro culture, 1:10 dilution) and FITC-labeled anti-mouse immunoglobulin (Sigma, USA, 1:300 dilution), and then with phycoerythrin-labeled F4/80 mAb (Caltag, USA, 0.2 μg/100 μl). Ia antigen expression was assessed by flow cytometry using EPICS “Elite” (Coulter, USA).

[2] = rat, in vivo, ip
Method: as §1
The pyrogenic effect SPF female Wistar rats were injected i.p. with a peptide (1.01 mg/kg; 5.74×10^−7 mole/kg) in PBS or with equal dose of GMDP (0.4 mg/kg; 5.74×10^−7 mole/kg). Rectal temperature was recorded every 5 minutes for 160 minutes using PowerLabe/4sp system with an electronic thermometer (MLT1403 Rectal Probe for Rats, AD Instruments USA). All data were quantified (mean±SEM) and compared by the variance analysis.

E. coli strain TG-1 = experiment: Survival of Balb/c mice infected with E. coli strain TG-1; format: in vivo, mouse; conditions: 2 ng i.p., 6 mice at 0 h
Method: Groups of Balb/c mice (20-22 g) were administered i.p. with RN-peptide, or GMDP, or saline (control), and then infected i.p. with E. coli strain TG-1 cells. Two doses of E. coli cells were used—1×10^8 (LD50) and 2×10^8 (LD100). Mice were infected one day (experiment A) or seven days (experiment B) after injection of the immunomodulator. Survival of mice was assessed during three days. Results showing that RN-peptide protects mice from lethal doses of E. coli infections (Table 4).

[3] = system: antibody response to ovalbumin; experiment: Adjuvant activity: antibody response to ovalbumin in mice, titer by solid-phase ELISA; format: in vivo, Balb/c mice; conditions: for Adjuvant index / Anti-ovalbumin antibody titer: i.p.
Method: To study the adjuvant activity of RN-peptide, Balb/c mice were immunized with ovalbumin in saline in the presence of the RN-peptide, its analogs or GMDP, or without any adjuvant (control). The adjuvant was introduced on first immunization, whereas second immunization was carried out with half dose of OVA without adjuvant.
Adjuvant activity. Groups of 5 Balb/c mice were administered i.p. with 2.5-10 μg ovalbumin (Sigma, USA) per mouse in 200 μl PBS. RN-peptide (0.1-100 μg) or GMDP (1-100 μg) was introduced simultaneously with ovalbumin on first immunization. The second immunization was carried out 28 days later with half dose of ovalbumin (1.25-5.0 μg/200 μl) without adjuvant. Control mice received ovalbumin twice without adjuvant. Three days after the second immunization mice were bled from the tail vein. […] Control mice received polysaccharide without any adjuvant. Five and ten days after immunization mice were bled.
The antibody titer was evaluated by solid-phase ELISA as described by Douillard and Hoffman (1983) Enzyme-linked immunosorbent assay for screening monoclonal antibody production using enzyme-labeled second antibody. The antigen (ovalbumin or polysaccharide), 5 μg/ml in bicarbonate buffer, pH 8.6 (100 μl), was introduced into wells of 96-well microtiter plate. Incubation was carried out overnight at 4° C. The plate was washed 5 times with PBS and 5 times with PBS/0.1% Tween-20 (PBS-T). Remaining binding sites were blocked with 1% gelatin in PBS (2 h, room temperature). After washing 100 μl of mouse serum (1:100 dilution) was added, and serial three-fold dilutions were made. Bound antibodies were visualized by incubation with Horse-Radish-Peroxidase (HRP)-conjugated rabbit anti-mouse antibodies and OPD as the chromogenic substrate.

[4] = Experiment A (infected one day after injection), 1 × 10^8 E. coli cells (LD50)
[5] = Experiment A (infected one day after injection), 2 × 10^8 E. coli cells (LD100)
[6] = Experiment B (infected seven days after injection), 1 × 10^8 E. coli cells (LD50)
[7] = Experiment B (infected seven days after injection), 2 × 10^8 E. coli cells (LD100)
[8] = adjuvant 1 μg, ovalbumin 10 μg then 5 μg
[9] = adjuvant 10 μg, ovalbumin 2.5 μg then 1.25 μg
[10] = adjuvant 10 μg, ovalbumin 10 μg then 5 μg
[11] = adjuvant 100 μg, ovalbumin 10 μg then 5 μg

Molecule: C[C@H](N)C(=O)N[C@H](CCC(=O)O)C(N)=O [Ala-D-iGln] (H-Ala-[dE]-NH2)
- inhibition of binding of GMDP to E6/1.2 mAb (mAb E6/1.2): not

Molecule: CC(=O)N[C@H]1[C@H](O[C@H]2[C@H](O[C@H](C)C(=O)N[C@@H](C)C(=O)N[C@H](CCC(=O)O)C(N)=O)[C@@H](NC(C)=O)C(O)O[C@@H]2CO)O[C@H](CO)[C@@H](O)[C@@H]1O (stereo partly drawn) [GMDP, N-acetylglucosaminyl-β1-4-N-acetylmuramyl-alanyl-D-isoglutamine, reference compound]
- concentration of peak (optimal) Ia-antigen response ([1]; 18 h incubation): 10 µg/mL
- increase in Ia-positive cell number ([1]; at optimal dose, overnight treatment): 10%
- optimal dose for Ia-positive cell increase ([1]; overnight treatment): 10 µg
- increase in body temperature [2]: 2.0-4.0%
- Number of survivors (E. coli strain TG-1; [4]): 2
- surviving mice, 24 hours after infection (E. coli strain TG-1; [4]): 2
- surviving mice, 28 hours after infection (E. coli strain TG-1; [4]): 2
- surviving mice, 72 hours after infection (E. coli strain TG-1; [4]): 2
- Number of survivors (E. coli strain TG-1; [5]): 1
- surviving mice, 24 hours after infection (E. coli strain TG-1; [5]): 2
- surviving mice, 28 hours after infection (E. coli strain TG-1; [5]): 2
- surviving mice, 72 hours after infection (E. coli strain TG-1; [5]): 1
- Number of survivors (E. coli strain TG-1; [6]): 2
- surviving mice, 24 hours after infection (E. coli strain TG-1; [6]): 5
- surviving mice, 28 hours after infection (E. coli strain TG-1; [6]): 2
- surviving mice, 72 hours after infection (E. coli strain TG-1; [6]): 2
- Number of survivors (E. coli strain TG-1; [7]): 0
- surviving mice, 24 hours after infection (E. coli strain TG-1; [7]): 3
- surviving mice, 28 hours after infection (E. coli strain TG-1; [7]): 2
- surviving mice, 72 hours after infection (E. coli strain TG-1; [7]): 0
- Adjuvant index [3, 8]: 0.7 ± 0.03
- Anti-ovalbumin antibody titer [3, 8]: 4000 ± 150
- Adjuvant index [3, 9]: 2.37 ± 0.06
- Anti-ovalbumin antibody titer [3, 9]: 5800 ± 150
- Adjuvant index [3, 10]: 1.3 ± 0.03
- Anti-ovalbumin antibody titer [3, 10]: 7900 ± 200
- Adjuvant index [3, 11]: 10.8 ± 0.08
- Anti-ovalbumin antibody titer [3, 11]: 64800 ± 500

Molecule: CC(=O)N[C@H]1[C@H](O[C@H]2[C@H](O[C@H](C)C(=O)O)[C@@H](NC(C)=O)C(O)O[C@@H]2CO)O[C@H](CO)[C@@H](O)[C@@H]1O (stereo partly drawn) [GlcNAc-β(1-4)-MurNAc]
- inhibition of binding of GMDP to E6/1.2 mAb (mAb E6/1.2): could be inhibited by high concentration

Molecule: CC(=O)NC1C(OC2C(CO)OC(O)C(NC(C)=O)C2OC(C)C(=O)NC(C)C(=O)NC(CCC(=O)O)C(N)=O)OC(CO)C(O)C1O (stereo not drawn) [LL-GMDP]
- binding of mAb E6/1.2 (mAb E6/1.2; compared with GMDP): bind equally well

Molecule: R-H-peptide: 7-mer, RN-peptide truncated from C-terminus (SEQ ID NO: 10); truncated heptapeptide (RVPPRYH)
- Adjuvant index [3, 8]: 0.7 ± 0.03
- Anti-ovalbumin antibody titer [3, 8]: 4000
- Adjuvant index [3, 10]: 2.3 ± 0.05
- Anti-ovalbumin antibody titer [3, 10]: 13900
- Adjuvant index [3, 11]: 8.6 ± 0.09
- Anti-ovalbumin antibody titer [3, 11]: 51900
- dose required for maximal effect relative to RN-peptide ([3]; mouse, in vivo): 100 times

Molecule: R-I-peptide: 10-mer, RN-peptide truncated from C-terminus (SEQ ID NO: 9) (RVPPRYHAKI)
- Adjuvant index [3, 8]: 6.3 ± 0.06
- Anti-ovalbumin antibody titer [3, 8]: 24000
- Adjuvant index [3, 10]: 3.2 ± 0.09
- Anti-ovalbumin antibody titer [3, 10]: 19200
- Adjuvant index [3, 11]: 4.2 ± 0.05
- Anti-ovalbumin antibody titer [3, 11]: 25200
- adjuvant activity (in words) ([3]; ovalbumin in mice): adjuvant active

Molecule: RV-peptide: 14-mer, RN-peptide truncated from C-terminus (SEQ ID NO: 8) (RVPPRYHAKISPMV)
- Adjuvant index [3, 8]: 6.3 ± 0.06
- Anti-ovalbumin antibody titer [3, 8]: 37800 ± 350
- Adjuvant index [3, 10]: 1.4 ± 0.04
- Anti-ovalbumin antibody titer [3, 10]: 8400 ± 240
- Adjuvant index [3, 11]: 0.8 ± 0.03
- Anti-ovalbumin antibody titer [3, 11]: 4800 ± 180

Molecule: VN-peptide: 14-mer, RN-peptide truncated from N-terminus (SEQ ID NO: 11) (VPPRYHAKISPMVN)
- Adjuvant index [3, 8]: 0.9 ± 0.03
- Anti-ovalbumin antibody titer [3, 8]: 5400 ± 200
- Adjuvant index [3, 10]: 1.4 ± 0.04
- Anti-ovalbumin antibody titer [3, 10]: 8400 ± 230
- Adjuvant index [3, 11]: 0.7 ± 0.03
- Anti-ovalbumin antibody titer [3, 11]: 4200 ± 150
